Assays:
[1] = tested on: fetal rat lung fibroblasts (FRLF); test: PGJ2 treatment of fetal rat lung fibroblasts, spontaneous and hyperoxia-induced lipo-to-myofibroblast transdifferentiation; assay type: cell-based; settings: PGJ2 30 µM
Experimental: e18 (pre-term) and e21 (near term) fetal rat lung fibroblasts were maintained in DMEM+10% fetal bovine serum in 21% (control) or 95% (experimental) O2+5% CO2 in sealed modular incubator chambers (Billups-Rothenberg, Del Mar, Calif.) kept at 37° C. in standard incubators. Modular incubators were flushed for 3 min at a flow rate of 10 liters/min with either 21 or 95% O2+5% CO2 with remainder of the gas mixture as N2. Modular incubators were then sealed and then put in standard cell culture incubators. When confluent, cells were passaged and allowed to grow in 21% O2 for 24 h. Subsequently, control cells were maintained in 21% O2+5% CO2 and experimental cells in 95% O2+5% CO2 in modular incubators as described above This was continued up to passage 5. Passage 1 and 5 cells were studied for the expression of various lipogenic and myogenic markers by reverse transcriptase-polymerase chain reaction (RT-PCR).
RT PCR probes used included-Rat Parathyroid Hormone related Protein Receptor (PTHrPR): 5′ CTCTTCTTGACTGTTGTCGCTGGT (SEQ ID NO:14) and 3′[…] […] Rat alpha Smooth Muscle Actin (SMA). RT-PCR was carried out for 2 hours at 37° C. in 50 mM Tris buffer, pH 8.3 containing 75 mM KCl, 3 mM MgCl2 and 10 mM DTT. […] The cDNA is adjusted to equal concentrations as assessed by the PCR of the constitutively expressed gene, GAPDH (rat lung GAPDH). […]

[2] = tested on: fetal rat lung type II cells; test: Co-culture of fetal rat type II cells with PGJ2-pretreated myofibroblasts, cell count and RT-PCR for Surfactant Protein B; assay type: cell-based
Experimental: FIGS. 14A and 14B show the effect of lipofibroblasts and myofibroblasts on fetal rat type II cell growth and differentiation. Fetal type II cells were co-cultured with lipofibroblasts, myofibroblasts or myofibroblasts pretreated with PGJ2. Cell growth was determined by cell count and differentiation was determined by RT-PCR for Surfactant Protein B. Note that in the presence of lipofibroblasts or myofibroblasts treated with PGJ2 that type II cells grow (see Figure on left) and differentiate (Figure on right) with time in culture. […] Day 1 v subsequent day in culture, *, p<0.05; **; p<0.01; ***,p<0.0001 by Analysis of Variance.
In order to link the process of fibroblast transdifferentiation to alveolarization, we recombined day 19 fetal rat lung type II cells with either P1 lipofibroblasts, P10 myofibroblasts, or P10 myofibroblasts pretreated with PGJ2; PGJ2 induces the transdifferentiation of myofibroblasts to lipofibroblasts (Hu et al. (1995) Proc. Natl. Acad. Sci. USA 92:9856-9860).

Myofibroblasts (P10s) = test: PGJ2 treatment of P10 myofibroblasts, lipofibroblast marker expression; assay type: cell-based, rat; settings: PGJ2 30 µM, up to 144 hours (FIG. 13)
[3] = tested on: E21 fetal rat lung lipofibroblasts; test: PTHrP treatment of serially passaged (P4) transdifferentiating lipofibroblasts, marker expression by competitive RT-PCR; assay type: cell-based; settings: PTHrP 0.5 µM, compared with P1
[4] = tested on: E19 fetal rat lung fibroblasts; test: PTHrP treatment of fetal rat lung fibroblasts, ADRP mRNA by competitive RT-PCR; assay type: cell-based; settings: 0.5 µM PTHrP (printed 0.5:M), 15 hours, normalized to GAPDH
d18 FRLFs = test: Antioxidant pretreatment of FRLFs exposed to hyperoxia, ADRP mRNA expression; assay type: cell-based, rat; settings: 95% O2 for 24 h, one hour antioxidant pretreatment
Experimental: RT-PCR was carried out for 2 hours at 37° C. in 50 mM Tris buffer, pH 8.3 containing 75 mM KCl, 3 mM MgCl2 and 10 mM DTT. The total volume of incubation was 20 μl and it contained 0.5 mM each of dNTP, 20 U of RNasin, 25 pmol of oligo(dt) primer and 200 U of Moroney murine leukemia virus reverse transcriptase. […] The cDNA is adjusted to equal concentrations as assessed by the PCR of the constitutively expressed gene, GAPDH (rat lung GAPDH). […]

Q: Which “hyperoxia induced lipo-to-myofibroblast transdifferentiation” value ([1]; 24 h treatment) does the source give for `CCCCC[C@H](O)/C=C/[C@H]1C(=O)C=C[C@@H]1C/C=C\CCCC(=O)O` [PGJ2, prostaglandin J2] here?
A: The value was “partially blunts”.

Q: What about the “spontaneous decrease in ADRP mRNA expression” value ([1]; up to 72 h in culture) of the same compound?
A: Its value is “attenuated”.

Q: What about the “Surfactant Protein-B expression by type II cells” value ([2]; type II cells co-cultured with PGJ2-treated P10 myofibroblasts) of the same compound?
A: Its value is “comparable to that by lipofibroblasts”.

Q: What about the “type II cell proliferation (cell number)” value ([2]; type II cells co-cultured with PGJ2 pre-treated P10 myofibroblasts, 5 day culture) of the same compound?
A: The value was “comparable to that of primary lipofibroblasts”.

Q: And the “expression of ADRP by P10 myofibroblasts” value (Myofibroblasts (P10s))?
A: The value was “increased the expression of ADRP”.

Q: Which results are given for “PTHrP: Parathyroid Hormone-related Protein; PTHrP (1-34) and PTHrP (7-34) amide were obtained from Bachem”?
A: alpha SMA expression ([3]; P4 lipofibroblasts, 24 hour treatment): decreased alpha SMA expression down to levels comparable to those observed for P1s; PTHrP receptor expression (printed in b310 as PTHrP expression) ([3]; lipofibroblasts treated at Passage 4 for 24 hours): increase in PTHrP expression up to a level comparable to that of P1s; ADRP expression [4]: inducing ADRP expression

Q: How did the “prevention of hyperoxia-induced decrease in ADRP mRNA expression” value (d18 FRLFs) turn out when superoxide dismutase was run?
A: Its value is “ineffective”.
